# Results as given in US7250304B2, “Functional assay of high-density lipoprotein” (The Regents of the University of California, priority 2000, dated 2007).
# Columns and labels:
# [1] = tested on: paraoxonase; settings: humans, six hours after the infusion vs two hours before
# Description: After obtaining written informed consent and with IRB approval from St Bartholomew's and the Royal London School of Medicine and Dentistry, apo A-I/phosphotidylcholine discs were infused at a dose of 40 mg apo A-I /kg of body weight over four hours using the materials and protocol described by Nanjee et al (Nanjee et al. (1999) Arterioscler. Thromb. Vascul. Biol. 19: 979-989; Nanjee et al. (1996) Arteroscler. Thromb. Vascul. Biol. 16: 1203-1214) into six healthy male subjects. […] Plasma was prepared 2 hrs before and 6 hrs following the infusion, was cryopreserved as described (Havel et al. (1955) J. Clin. Invest. 43: 1345-1353) and LDL was isolated by FPLC in the authors' lab in Los Angeles before the experiments. LDL islated from plasma according to this protocol functions in a manner that is indistinguishable from freshly isolated LDL in vitro and in vivo (Rumsey et al. (1994) J. Lipid Res. 35: 1592-1598).
# Paraoxonase (PON) activity was measured as previously described (Gan et al. (1991) Drug Metab. Dispos. 19: 100-106). Statistical significance was determined by model 1 ANOVA. […] Significance is defined as p<0.05.
# [2] = tested on: human artery wall cell cocultures; assay: Monocyte chemotaxis assay on coculture conditioned medium; type: cell-based
# Description: The wells of the microtiter plates were treated with 0.1% gelatin at 37° C. overnight. HASMC were added at a confluent density of 1×10^5 cells/cm^2. Cells were cultured for 2 d at which time they had covered the entire surface of the well and had produced a substantial amount of extracellular matrix. HAEC were subsequently added at 2×10^5 cells/cm^2 and were allowed to grow forming a complete monolayer of confluent HAEC in 2 d. In all experiments, HAEC and autologous HASMC (from the same donor) were used at passage levels of four to six.
# Monocytes were isolated using a modification of the Recalde method as previously described (Fogelman et al. (1988) J. Lipid Res. 29: 1243-1247) from the blood of normal volunteers after obtaining written consent under a protocol approved by the human research subject protection committee of the University of California, Los Angeles.
# In general, the cocultures were treated with native LDL (250 μg/ml) in the absence or presence of HDL for 8 h. The supernatants were collected and used for determination of lipid hydroperoxide levels. The cocultures were subsequently washed and fresh culture medium 199 (M199) without any additions was added and incubated for an additional 8 hrs. This allowed the collection of monocyte chemotactic activity released by the cells as a result of stimulation by the oxidized LDL. At the end of incubation, the supernatants were collected from cocultures, diluted 40-fold, and assayed for monocyte chemotactic activity. Briefly, the supernatant was added to a standard Neuroprobe chamber (NeuroProbe, Cabin John, Md.), with monocytes added to the top. The chamber was incubated for 60 min at 37° C. After the incubation, the chamber was disassembled and the nonmigrated monocytes were wiped off. The membrane was then air dried and fixed with 1% glutaraldehyde and stained with 0.1% Crystal Violet dye. The number of migrated monocytes was determined microscopically and expressed as the mean±SD of 12 standardized high power fields counted in quadruple wells.
# [3] = tested on: HAEC monolayers; assay: Monocyte adhesion assay; type: cell-based, human; settings: LDL 1 mg/ml incubated with apo A-I 100 μg/ml 2 hrs, re-isolated
# Description: In brief, HAEC monolayers, in 48-well tissue culture plates were incubated with the desired LDL or phospholipid for 4 hrs at 37° C. as described (Watson et al. (1995) J. Clin. Invest. 96: 2882-2891). After washing, a suspension of human peripheral blood monocytes was added and incubated for 10 min. The loosely adherent monocytes were then washed away, the monolayers were fixed and the number of adherent monocytes counted in 9 high power microscopic fields.
# Freshly isolated LDL (250 μg) was incubated with pure 13(S)-HPODE (1.0 μg) in 10% LPDS in M 199 for 4 hrs at 37° C. with gentle mixing. LDL was re-isolated by centrifugation and was incubated with monolayers of human aortic endothelial cells. […] The endothelial monolayer was washed after each time point and a monocyte suspension was added, incubated, washed, and the number of adherent monocytes determined.
# Freshly isolated LDL (250 μg) was incubated with 10 units of pure soybean lipoxygenase bound to sepharose beads for 4 hrs at 37° C. with gentle mixing. […] The endothelial monolayer was washed after each time point and monocyte adhesion determined.
# Blood samples were collected from patients referred to the cardiac catheterization laboratory at The Center for Health Sciences at the University of California, Los Angeles. […] The HDL-Ox-PAPC mixture was then added to endothelial monolayers and monocyte binding was determined.
# [4] = tested on: humans; assay: Infusion of apo A-I into humans, LDL isolated and tested on human artery wall cocultures; type: in vivo
substance,measurement,setting,value
"apo A-I: Human apo A-I from Sigma, major apolipoprotein of HDL; infused into humans as apo A-I/phosphatidylcholine discs","PON activity in plasma and HDL, increase",[1],approximately 20%
same,LDL-induced monocyte chemotaxis in pretreated cocultures,"[2]; cocultures incubated 8 hrs with agent, agent removed before LDL",monocyte chemotaxis was prevented
same,LDL-induced monocyte chemotactic activity of LDL pre-incubated with the agent,"[2]; human LDL incubated with agent, re-isolated, then cocultures",prevented LDL-induced monocyte chemotaxis
same,monocyte adherence induced by LDL after A-I,[3],did not stimulate monocyte adherence
same,resistance of human LDL to oxidation by artery wall cells after infusion,"[4]; apo A-I/phosphatidylcholine discs 40 mg apo A-I/kg over 4 hrs, six hours after vs two hours before, six out of six subjects",much more resistant to oxidation
same,time after infusion at which LDL was rendered resistant to oxidation,[4]; humans,≤ 6 h
